Here are results for 5 compounds from ChEMBL document CHEMBL4043296 (J Med Chem, 2018).

The species named for assay [1] is Homo sapiens. Briefly: Selectivity ratio of Ki for human dopamine D2 receptor to Ki for human dopamine D4 receptor.
The target of assay [2] is D(2) dopamine receptor (Homo sapiens, UniProt P14416). Briefly: Displacement of [3H]N-methylspiperone from human dopamine D2 receptor expressed in HEK293 cell membranes after 1 hr by scintillation counting method.
The target of assay [3] is T1, D(4) dopamine receptor (Homo sapiens, UniProt P21917).
T1 sequence (P21917 whole entry): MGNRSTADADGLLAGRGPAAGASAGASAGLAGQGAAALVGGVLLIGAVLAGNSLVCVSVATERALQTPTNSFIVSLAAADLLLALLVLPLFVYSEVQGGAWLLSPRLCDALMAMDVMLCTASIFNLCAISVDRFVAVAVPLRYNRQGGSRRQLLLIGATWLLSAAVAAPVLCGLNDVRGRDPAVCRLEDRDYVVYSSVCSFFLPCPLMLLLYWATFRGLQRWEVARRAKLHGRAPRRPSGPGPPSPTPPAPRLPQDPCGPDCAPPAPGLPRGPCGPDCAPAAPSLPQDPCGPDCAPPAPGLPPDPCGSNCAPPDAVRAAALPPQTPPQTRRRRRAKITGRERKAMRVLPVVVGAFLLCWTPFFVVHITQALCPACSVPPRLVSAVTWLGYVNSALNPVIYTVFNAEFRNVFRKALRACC
Briefly: Displacement of [3H]N-methylspiperone from human dopamine D4 receptor expressed in HEK293 cell membranes after 1 hr by scintillation counting method.

Assay [4] concerns the target D(3) dopamine receptor (Homo sapiens, UniProt P35462). Briefly: Displacement of [3H]N-methylspiperone from human dopamine D3 receptor expressed in HEK293 cell membranes after 1 hr by scintillation counting method. In general terms: Loss of bound radioactivity is the signal in a displacement assay; it reports binding, not function.

A word on the Ki: it is a dissociation constant, usually derived from enzyme kinetics or from competition with a known ligand. A higher Ki goes with lower affinity.

Sequence of D(3) dopamine receptor (P35462 whole entry): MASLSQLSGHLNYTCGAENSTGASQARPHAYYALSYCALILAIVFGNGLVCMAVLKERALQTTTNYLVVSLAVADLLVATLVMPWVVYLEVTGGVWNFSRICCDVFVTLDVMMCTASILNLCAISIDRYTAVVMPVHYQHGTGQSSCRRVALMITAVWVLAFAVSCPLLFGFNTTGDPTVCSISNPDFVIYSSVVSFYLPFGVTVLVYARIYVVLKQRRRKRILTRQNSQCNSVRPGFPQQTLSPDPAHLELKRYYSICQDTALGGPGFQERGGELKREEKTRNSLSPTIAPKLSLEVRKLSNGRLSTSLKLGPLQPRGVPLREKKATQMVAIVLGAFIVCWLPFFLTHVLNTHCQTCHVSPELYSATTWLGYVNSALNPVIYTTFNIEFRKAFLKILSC
Sequence of D(2) dopamine receptor (P14416 whole entry): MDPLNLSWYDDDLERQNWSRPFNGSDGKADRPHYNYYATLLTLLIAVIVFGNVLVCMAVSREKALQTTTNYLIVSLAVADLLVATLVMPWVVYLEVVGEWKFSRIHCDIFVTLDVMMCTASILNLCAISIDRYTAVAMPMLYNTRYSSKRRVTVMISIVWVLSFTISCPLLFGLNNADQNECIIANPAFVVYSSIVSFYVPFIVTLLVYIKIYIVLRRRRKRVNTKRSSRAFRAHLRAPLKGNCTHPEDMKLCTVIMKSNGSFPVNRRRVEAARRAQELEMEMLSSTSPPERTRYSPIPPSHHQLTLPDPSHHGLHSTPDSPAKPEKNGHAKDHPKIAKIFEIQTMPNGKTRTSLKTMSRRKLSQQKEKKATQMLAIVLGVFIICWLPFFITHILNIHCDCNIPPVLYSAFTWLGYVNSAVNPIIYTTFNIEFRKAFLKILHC

Regarding `CC(C)Oc1cccnc1N(C)C1CCN(Cc2ccc(I)cc2)CC1`, the Ratio Ki in assay [1] stood at 1720.
With `O=C1CCc2ccccc2N1CCCN1CCC(CCCCCCCO)CC1`, the Ratio Ki in assay [1] came to 9. Besides, the Ki in assay [2] was 933 nM; in assay [3] it was 100 nM; in assay [4] it was 955 nM.
As to `COc1cccc(CCC2=NCCN2CCc2ccccc2)c1`, in assay [1], the Ratio Ki is over 105. Also, the Ki in assay [3] is 95.5 nM.
On to `COc1ccc(Cl)cc1OC[C@@H]1CN(Cc2ccc(Cl)cc2)CCO1`, for which, in assay [1], the Ratio Ki came out at 48.
Take `O=C1CCc2ccccc2N1CCCN1CCC(CCCO)CC1`: the Ratio Ki in assay [1] was 9. The figures for the Ki in assay [2], in assay [3] and in assay [4] were 661 nM, 74.1 nM and 589 nM, respectively.
